# Laboratory results: patent US20240254087A1, “SELECTIVE, PARTIAL, AND ARRESTIN-BIASED 5-HT2A AGONISTS WITH UTILITY IN VARIOUS DISORDERS” (Saint Joseph's University, priority 2021, published 2024)
# Read-outs that look alike come from different tables or passages of the source.
# Legend:
# Set-up in all cases: expressed in transfected cells; host or cells: HEK293T, transient
# 5-HT2A [1] = molecular target: T1, 5-HT2A (Homo sapiens, UniProt P28223); test: cell-based; conditions: for EC50 / 5-HT2A Gq Emax (% 5-HT) / 5-HT2A Gq dissociation pEC50: BRET, mean ± SEM; for EC50: read-out: 5-HT2A Gq dissociation pEC50 (converted); for Emax: read-out: 5-HT2A Gq Emax (% 5-HT), BRET, mean ± SEM
# T1 sequence (P28223 whole entry): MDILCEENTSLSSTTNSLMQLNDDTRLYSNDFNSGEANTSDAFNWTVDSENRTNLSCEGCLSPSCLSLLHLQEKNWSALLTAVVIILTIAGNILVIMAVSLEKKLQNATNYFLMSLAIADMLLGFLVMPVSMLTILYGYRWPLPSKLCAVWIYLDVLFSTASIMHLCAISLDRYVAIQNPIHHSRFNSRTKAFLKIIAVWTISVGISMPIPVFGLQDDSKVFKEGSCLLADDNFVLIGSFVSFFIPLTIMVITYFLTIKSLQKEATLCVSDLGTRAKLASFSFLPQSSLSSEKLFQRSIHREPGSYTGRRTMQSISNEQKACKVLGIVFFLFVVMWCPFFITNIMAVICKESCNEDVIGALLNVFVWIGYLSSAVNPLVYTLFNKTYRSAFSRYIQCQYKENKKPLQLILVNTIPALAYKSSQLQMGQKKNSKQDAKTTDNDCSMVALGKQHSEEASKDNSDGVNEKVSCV
# Experimental: (§1) After at least 18-24 hours, transfected cells were plated in poly-lysine coated 96-well white clear bottom cell culture plates in DMEM containing 1% dialyzed FBS at a density of 25-40,000 cells in 200 μL per well and incubated overnight. After approximately 20-24 hours, media was decanted and cells were washed with 60 μL of drug buffer (1×HBSS, 20 mM HEPES, pH 7.4), followed by 60 μL of drug buffer and pre-incubated in a humidified atmosphere at 37° C. before receiving drug stimulation. Drug stimulation was induced by adding 30 μL of a solution of drug (3X) diluted in McCorvy buffer (1×HBSS, 20 mM HEPES, pH 7.4, supplemented with 0.3% BSA fatty acid free, 0.03% ascorbic acid) and plates were incubated at the indicated time and temperature. Fifteen minutes before reading, 10 μL of the RLuc substrate, either coelenterazine h for β-Arrestin recruitment BRET^1 or coelenterazine 400a for Gq dissociation BRET^2 (Prolume/Nanolight, 5 μM final concentration) was addedper well. […] The BRET ratios of fluorescence/luminescence were calculated per well and were plotted as a function of drug concentration using Graphpad Prism 8 (Graphpad Software Inc., San Diego, CA).
# 5-HT2A [2] = molecular target: T1, 5-HT2A; test: cell-based; conditions: for EC50 / 5-HT2A β-arrestin Emax (% 5-HT) / 5-HT2A β-arrestin recruitment pEC50: BRET, mean ± SEM; for EC50: read-out: 5-HT2A β-arrestin recruitment pEC50 (converted); for Emax: read-out: 5-HT2A β-arrestin Emax (% 5-HT), BRET, mean ± SEM
# Experimental: as §1
# 5-HT2B = 5-HT2B (Homo sapiens, UniProt P41595); test: BRET Gq dissociation, 5-HT2B; assay type: cell-based
# Sequence of 5-HT2B (P41595 whole entry): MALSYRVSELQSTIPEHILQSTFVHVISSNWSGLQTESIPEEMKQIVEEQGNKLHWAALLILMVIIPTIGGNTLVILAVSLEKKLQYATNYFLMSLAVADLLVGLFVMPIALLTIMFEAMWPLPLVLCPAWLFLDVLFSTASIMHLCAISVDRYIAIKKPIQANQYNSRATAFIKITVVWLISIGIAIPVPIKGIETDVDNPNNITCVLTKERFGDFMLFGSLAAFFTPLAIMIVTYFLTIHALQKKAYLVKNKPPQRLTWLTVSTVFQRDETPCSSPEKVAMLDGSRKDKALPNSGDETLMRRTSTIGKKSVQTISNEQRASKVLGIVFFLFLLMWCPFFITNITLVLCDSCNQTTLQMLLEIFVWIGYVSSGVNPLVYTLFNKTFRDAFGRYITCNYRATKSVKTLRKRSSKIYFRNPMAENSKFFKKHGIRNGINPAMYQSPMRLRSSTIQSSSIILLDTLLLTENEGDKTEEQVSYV
# Experimental: After at least 18-24 hours, transfected cells were plated in poly-lysine coated 96-well white clear bottom cell culture plates in DMEM containing 1% dialyzed FBS at a density of 25-40,000 cells in 200 μL per well and incubated overnight. After approximately 20-24 hours, media was decanted and cells were washed with 60 μL of drug buffer (1×HBSS, 20 mM HEPES, pH 7.4), followed by 60 μL of drug buffer and pre-incubated in a humidified atmosphere at 37° C. before receiving drug stimulation. Drug stimulation was induced by adding 30 μL of a solution of drug (3X) diluted in McCorvy buffer (1×HBSS, 20 mM HEPES, pH 7.4, supplemented with 0.3% BSA fatty acid free, 0.03% ascorbic acid) and plates were incubated at the indicated time and temperature. Fifteen minutes before reading, 10 μL of the RLuc substrate, either coelenterazine h for β-Arrestin recruitment BRET^1 or coelenterazine 400a for Gq dissociation BRET^2 (Prolume/Nanolight, 5 μM final concentration) was addedper well. Plates were read for luminescence at 485 nm and fluorescent eYFP emission at 530 nm for BRET^1 and at 400 nm and fluorescent GFP2 emission at 510 nm for BRET2 at 1 second per well using a Mithras LB940 (Berthold). The BRET ratios of fluorescence/luminescence were calculated per well and were plotted as a function of drug concentration using Graphpad Prism 8 (Graphpad Software Inc., San Diego, CA).
# 5-HT2C = molecular target: T2, 5-HT2C (Homo sapiens, UniProt P28335); test: BRET Gq dissociation, 5-HT2C; assay type: cell-based; conditions: for Emax: read-out: 5-HT2C Gq Dissociation (BRET) EMAX ± SEM (%5-HT); for EC50: read-out: 5-HT2C Gq Dissociation (BRET) pEC50 ± SEM (converted)
# T2 sequence (P28335 33-458): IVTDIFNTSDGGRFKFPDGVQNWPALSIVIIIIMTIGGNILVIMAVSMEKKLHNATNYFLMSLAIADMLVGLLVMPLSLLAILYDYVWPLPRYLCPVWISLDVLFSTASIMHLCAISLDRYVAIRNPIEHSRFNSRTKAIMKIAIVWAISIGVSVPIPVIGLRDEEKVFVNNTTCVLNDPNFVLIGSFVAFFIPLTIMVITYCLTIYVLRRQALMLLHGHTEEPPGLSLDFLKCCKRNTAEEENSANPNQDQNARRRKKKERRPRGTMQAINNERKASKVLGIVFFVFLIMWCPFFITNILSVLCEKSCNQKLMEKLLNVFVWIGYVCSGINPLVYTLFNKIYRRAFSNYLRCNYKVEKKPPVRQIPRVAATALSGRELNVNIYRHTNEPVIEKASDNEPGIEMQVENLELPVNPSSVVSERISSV
# Experimental: as §1
SMILES,EC50 (5-HT2A [1]),Emax (5-HT2A [1]),EC50 (5-HT2A [2]),Emax (5-HT2A [2]),5-HT2B Gq Dissociation (BRET) EMAX ± SEM (%5-HT) (5-HT2B),5-HT2B Gq Dissociation (BRET) pEC50 ± SEM (5-HT2B),Emax (5-HT2C),EC50 (5-HT2C),Emax (5-HT2B; read-out: 5-HT2B Gq Dissociation (BRET) EMAX ± SEM (%5-HT)),EC50 (5-HT2B; read-out: 5-HT2B Gq Dissociation (BRET) pEC50 ± SEM (converted)),5-HT2A Gq Emax (% 5-HT) (5-HT2A [1]),5-HT2A Gq dissociation pEC50 (5-HT2A [1]),5-HT2A β-arrestin Emax (% 5-HT) (5-HT2A [2]),5-HT2A β-arrestin recruitment pEC50 (5-HT2A [2])
COc1cc(Br)c(Br)c(OC)c1CCNCc1cccc(C)c1O [(45)],2.24 nM,70.5 ± 2%,1.32 nM,77.5 ± 6%,No activity,No activity,81 ± 2.1%,1.51 nM,,,,,,
COc1cc(OC)c(OC)cc1CCNCc1ccccc1-c1ccco1 [(58)],50.1 nM,51.9 ± 2.2%,56.2 nM,112 ± 6.2%,,,94 ± 4%,14.1 nM,37.6 ± 2%,3.09 nM,,,,
COc1cc(Br)cc(OC)c1CCNCc1cccc(C)c1O [(42)],1.1 nM,69.2 ± 1.5%,0.513 nM,78.9 ± 3.7%,No activity,No activity,78.1 ± 1.6%,1.51 nM,,,,,,
COc1cc(CCNC2CCc3ccccc32)c(OC)cc1C (stereo not shown) [(83)],6.31 nM,50.7 ± 7%,8.13 nM,112 ± 11.5%,,,,,,,,,,
COc1cc(Br)c(CCNCc2cccc3ccccc23)cc1OC [(30)],42.7 nM,32.3 ± 1.6%,4.47 nM,65.1 ± 3%,No activity,No activity,81.4 ± 3.4%,66.1 nM,,,,,,
"COc1cc(CCN)c(OC)cc1Br [Compound 2C-B, reference compound]",,,,,97.4 ± 1.4 %5-HT,7.90 ± 0.04,,,,,100.8 ± 0.9 % 5-HT,8.92 ± 0.03,84.0 ± 1.0 % 5-HT,8.62 ± 0.04
COc1cc(Cl)ccc1CC(C)NCc1cccc(C)c1O (stereo not shown) [(46)],4.79 nM,67.8 ± 1.6%,1.12 nM,72.9 ± 5.6%,No activity,No activity,95.5 ± 3.2%,11.5 nM,,,,,,
COc1cc(OC)c(OC)cc1CCNCc1cccc(Br)c1O [(48)],20.4 nM,53.6 ± 1.7%,8.13 nM,85 ± 4.8%,No activity,No activity,69.2 ± 6.1%,174 nM,,,,,,
COc1cc(Br)ccc1CCNCc1cccc2ccccc12 [(36)],,26.3 ± 1.2%,,80.2 ± 3.1%,No activity,No activity,76 ± 1.8%,24.5 nM,,,,,,
COc1cc(Cl)ccc1CCNCc1cccc2ccccc12 [(34)],,25.2 ± 2%,,83.6 ± 3.6%,No activity,No activity,75.9 ± 1.7%,38 nM,,,,,,
COc1cc(Br)cc(OC)c1CCNCc1cccc2ccccc12 [(32)],3.89 nM,33 ± 1.1%,1.05 nM,85.5 ± 2%,No activity,No activity,81 ± 1.6%,6.31 nM,,,,,,
COc1cc(Br)ccc1CCNCc1cccc(C)c1O [(41)],2.24 nM,68.7 ± 1.3%,2.51 nM,86.6 ± 3.9%,No activity,No activity,72.2 ± 1.6%,4.9 nM,,,,,,
COc1cc(OC)c(OC)cc1CCNCc1cccc2c1CCC2 [(51)],1.7 nM,41.2 ± 1.9%,3.31 nM,72.9 ± 4.2%,No activity,No activity,52.5 ± 5.2%,93.3 nM,,,,,,
COc1cc(OC)c(OC)cc1CCNCc1cccc2cccnc12 [(54)],11.2 nM,54.3 ± 1.5%,8.51 nM,100 ± 3.5%,No activity,No activity,90.5 ± 3.1%,14.8 nM,,,,,,
COc1cc(CCNCc2cccc3ccccc23)ccc1Cl [(40)],,29.9 ± 1.8%,,80.8 ± 3.8%,No activity,No activity,87.8 ± 2%,97.7 nM,,,,,,
COc1cc(OC)c(OC)cc1CCNCc1cccc(F)c1F [(65)],64.6 nM,76.5 ± 2.3%,170 nM,101 ± 2.7%,No activity,No activity,83.3 ± 6.3%,200 nM,,,,,,
CCOc1ccc(CCNCc2cccc3ccccc23)cc1OC [(37)],,29.3 ± 1.9%,,75.4 ± 2.4%,No activity,No activity,84.5 ± 2.8%,263 nM,,,,,,
COc1cc(CCNCc2cccc3ccccc23)c(OC)cc1C [25D-N1-Nap (27)],,34.3 ± 2.9%,,75.5 ± 2.4%,,,,,,,,,,
COc1cc(CCNC2CCc3cccc(O)c32)c(OC)cc1C (stereo not shown) [(84)],2.69 nM,71.9 ± 4.9%,3.47 nM,113 ± 4.3%,,,,,,,,,,
COc1cc(OC)c(OC)cc1CCNCc1cccc2c1CCCC2 [(52)],7.59 nM,43.7 ± 1.1%,1.78 nM,65 ± 4.9%,No activity,No activity,43.6 ± 3.8%,34.7 nM,,,,,,
COc1cc(CCNCc2cccc(C)c2O)cc(OC)c1Br [(44)],12 nM,70.4 ± 1.2%,11.2 nM,66.1 ± 2.8%,No activity,No activity,80.2 ± 2.1%,7.08 nM,,,,,,
"CN(C)CCc1c[nH]c2ccccc12 [DMT, reference compound]",,,,,,,,,,,76 ± 2 % 5-HT,7.17 ± 0.07,64 ± 3 % 5-HT,7.12 ± 0.13
COc1cc(CCNCc2ccccc2-c2ccccc2)c(OC)cc1C [25D-NBPh (28)],,23.2 ± 4.8%,,107 ± 4.7%,,,,,,,,,,
COc1cc(CCNC2Cc3ccccc3C2)c(OC)cc1C [(85)],17.8 nM,53.5 ± 4.3%,5.13 nM,70.9 ± 5.1%,,,,,,,,,,
